This is an account of results in patent US12285408B2, “Methods and compositions for the treatment of snake bite” (priority 2021, dated 2025).

Data set [1] can be described thus: Tolerability of oral DMPS. The data set is classed as in vivo.
The test system of the next data set is Echis ocellatus venom. Particulars: previous work, same preclinical model; cited from earlier work.

`O=S(=O)(O)CC(S)CS` (centres unmarked) [DMPS, 2,3-dimercapto-1-propanesulfonic acid]: the “oral dose that is well tolerated and safe” value in data set [1] is “up to 1,500 mg”. The “time for which lethality was prevented” value with Echis ocellatus venom is listed as roughly 8 h.
